“And” between values parts separate entries of the source, which are not always exact repeats. Equal entries are not always repeated. Where two headings read alike, the source gives them in different places. Square brackets hold non-standard residues; d marks the D form. Ends that are not written are not given here. Peptide text beside a SMILES is read from it. Oic = O=C(O)[C@@H]1C[C@@H]2CCCC[C@@H]2N1; Hyp = O=C(O)[C@@H]1C[C@@H](O)CN1
Experiments:
Varroa mites [1] = test: Injection of compound into the body cavity of varroa mites (excretion); format: in vivo, Varroa destructor; conditions: ~5 nL of 200 μM
Source text: Micro-glass electrodes were used for the injections using the pressure injection system (Dagan PMI-200). All injected animals were within 5 hr after the collections as described above.

[2] = target: T1, varroa mite proctolin receptor (VdProctR) (Varroa destructor, UniProt A0A7T1TE40); test: Receptor activity assay: luminescence in cells transiently transfected with varroa mite proctolin receptor; format: cell-based; conditions: for Activity at high concentrations compared with proctolin: at 1 μM and 10 μM; for EC50: varroa mite proctolin receptor
T1 sequence (A0A7T1TE40 1-530): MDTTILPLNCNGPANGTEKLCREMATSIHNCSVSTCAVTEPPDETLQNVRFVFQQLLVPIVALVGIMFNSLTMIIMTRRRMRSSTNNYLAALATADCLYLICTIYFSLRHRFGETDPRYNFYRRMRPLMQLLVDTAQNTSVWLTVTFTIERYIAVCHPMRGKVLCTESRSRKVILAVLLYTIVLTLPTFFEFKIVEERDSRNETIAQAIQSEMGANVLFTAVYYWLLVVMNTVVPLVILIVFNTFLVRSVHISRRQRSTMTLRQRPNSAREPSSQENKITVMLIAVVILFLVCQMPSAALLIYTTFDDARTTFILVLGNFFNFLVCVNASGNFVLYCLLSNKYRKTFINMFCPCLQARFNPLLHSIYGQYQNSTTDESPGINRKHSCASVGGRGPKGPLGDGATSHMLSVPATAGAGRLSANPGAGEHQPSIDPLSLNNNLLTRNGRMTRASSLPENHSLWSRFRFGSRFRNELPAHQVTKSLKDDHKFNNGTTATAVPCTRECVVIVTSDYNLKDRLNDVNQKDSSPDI
Procedure: (§1) Approximately thirty hours after transfection, the cells were collected and preincubated with coelenterazine h for the functional assay. The ligands in serial dilutions were loaded into 96-well opaque plates. Cells treated with coelenterazine h were injected into each well on an Orion microplate luminometer (Berthold) luminescent plate reader. The luminescence was measured for 20 seconds immediately after the cell injections. Data analyses were performed to determine the accumulated luminescence value for 20 seconds after extraction of blank-well luminescence. A dose-response curve was generated and the EC50 (50% effective concentration) was calculated in Origin 7 (OriginLab).

worker honey bees = test: Injection into the thorax of worker honey bees (negative effects); format: in vivo, honey bee; conditions: injection of 50 nL at 200 μM into the thorax, 24-hour observation, n=4
Procedure: (§2) Honey bee FMRFamide receptor was cloned and expressed in the same system as described for the procotolin receptor. […] Potential effects of the peptidomimetics 2439, 2334, 2336, Ac-2442, and H2O control were tested by injections of the compounds into the thorax of worker honey bees.

Varroa mites [3] = test: Varroa mite toxicity test (forced feeding, 200 nL drop on the gnathosoma; paralysis/death counted); format: in vivo, Varroa destructor; conditions: 48-hour treatment, feeding assay
Procedure: Varroa mite toxicity test: Adult female Varroa mites were collected using a sugar roll method from honey bee hives located at the East Campus apiary of the University of Nebraska (Lincoln, Nebr. USA). The hives were not treated with chemicals for honey bee parasites or pathogens. The mites were sorted in the laboratory with a paint brush and tested within 4 h post collection. The mites were placed in 9 cm diameter Petri dishes (Fisher Scientific) lined with filter paper. The dorsal side of the mites was secured to a strip of tape placed on the filter paper. Ten mites were secured to the tape in each dish and three dishes were used for each treatment (i.e., 30 mites/treatment). The peptide mimics were prepared in autoclaved ddH2O to a concentration of 0.1 nM for 2334, 2336, and Ac-2442 and 3 nM for 2326. Each peptide mimic was delivered as a 200 nL aliquot to the gnathosoma of the mites with autoclaved ddH2O serving as the untreated control. Following exposure to the peptide mimics, the number of affected (i.e., dead and/paralyzed) was observed and recorded at 1, 2, 6, 12, 24, and 48 h. The percent effect for each treatment was analyzed using a one-way analysis of variance (ANOVA) with a Tukey's post-hoc test (GraphPad Prism, La Jolla, Calif.; p<0.05).
In the continued bioassay (FIG. 4 and FIG. 5), the toxicities were assessed by counting paralysis/death in feeding assay. […]

[4] = tested on: honey bee FMRFamide receptor; test: Activity on the honey bee FMRFamide receptor expressed in the same system; format: cell-based; conditions: in words
Procedure: as §1, §2

Bombyx mori larval gut = conditions: cited from earlier work
honey bee queen = conditions: injection, 1 μL containing 1 μg; cited from earlier work
[5] = tested on: empty vector transfected cells; test: Receptor activity assay, negative control: cells transfected with empty vector; format: cell-based; conditions: 10 μM proctolin
Procedure: as §1, with “Receptor activity assay: […] Approximately” for “Approximately”, “[…] The receptor” for “A dose-response curve”, “also tested with a variety of peptide analogues” for “generated”, “peptidomimetics.” for “the EC50 (50% effective concentration) was calculated in Origin 7 (OriginLab).”

[6] = first set of experiments, EC50 relative to proctolin (0.22 nM)
[7] = first set of experiments, read-out: EC50

**Q.** What does the source list for CC(C)C[C@H](NC(=O)[C@H](Cc1ccc(O)cc1)NC(=O)[C@@H](N)CCCNC(=N)N)C(=O)N1C[C@H](O)C[C@H]1C(=O)N[C@H](C(=O)O)[C@@H](C)O [Analog 2334, RYL[HyP]T] (H-RYL[Hyp]T-OH; N-terminus assumed)?
**A.** Individuals with immediate excretion of a drop of fecal material through the anus (Varroa mites [1]): 3/4; Activity at high concentrations compared with proctolin [2]: higher than that of proctolin; Fold change [2, 6]: 2.5 and 2.45; EC50 [2, 7]: 0.54 nM; Agonist activity / potency on the Varroa mite proctolin receptor, in words [2]: strong agonists

**Q.** Which “Negative effects in worker honey bees” value (worker honey bees) does the source give for CC(C)C[C@H](NC(=O)[C@H](Cc1ccc(O)cc1)NC(=O)[C@@H](N)CCCNC(=N)N)C(=O)N1[C@H](C(=O)N[C@H](C(=O)O)[C@@H](C)O)C[C@@H]2CCCC[C@@H]21 [Analog 2336, RYL[Oic]T] (H-RYL[Oic]T-OH; N-terminus assumed) here?
**A.** did not show any negative effects

**Q.** And the “Percent effect (paralyzed or dead mites)” value (Varroa mites [3])?
**A.** 100%

**Q.** And the “Activity at high concentrations compared with proctolin” value [2]?
**A.** higher than that of proctolin

**Q.** And the Fold change [2, 6]?
**A.** 5.95

**Q.** What about the EC50 [2, 7] of the same compound?
**A.** 1.3 nM and 1.31 nM

**Q.** What about the “Agonist activity / potency on the Varroa mite proctolin receptor, in words” value [2] of the same compound?
**A.** strong agonists

**Q.** Which results are given for RYLPT [Proctolin, RYLPT]?
**A.** Activity on the honey bee FMRFamide receptor [4]: no activities; Concentration required for hindgut contraction (Bombyx mori larval gut; Bombyx mori larval hindgut): 180 µM; Concentration required in the midgut to slightly reduce leucine uptake (Bombyx mori larval gut; Bombyx mori larval midgut): 10 µM; EC50 ([2]; EC50 (nM), first set of experiments): 0.22 nM; EC50 ([2]; EC50 (nM), second set of peptidomimetics): 14.2 nM; Fold change [2, 6]: 1.00; Fold change ([2]; second set, EC50 relative to proctolin (14.19 nM)): 1.00; Egg-laying activity of the queen (honey bee queen): increased the egg-laying activity of the queen; Activity on empty vector transfected cells [5]: did not show any activity
